Among the data in patent US3950352A, “2,2-Dimethyl-3R-carboxy-6S-phenyl(or phenoxy)acetamido-1-oxa-4-aza-5R-bicyclo[3,2,0]heptan-7-one and processes for their production” (Queen's University, priority 1974, dated 1976) are antibacterial activity values, retold here.

The test in a line: antibacterial activity (organism not stated). Type of test: cell-based. Conditions: at levels of 250 mcg./ml. From the text:
After overnight development in a system containing n-butanol 60:acetic acid:15: water 25, the strips were air dried and one set was sprayed with Riker penicillinase. Both sets were then subjected to bioautography on B. subtilis.

As for `CC(C)=C(C(=O)O)N1C(=O)[C@H]2N=C(Cc3ccccc3)O[C@H]21` [oxazoline carboxylic acid, 2-benzyl-6-(1'-carboxy-2'-methylprop-1'-enyl)-1-oxa-3,6-diaza-4S,5R-bicyclo [3,2,0] hept-2-en-7-one], the antibacterial activity entry was “inactive”.
